Data on five compounds can be found in article PMC5300040 (Environmental Science & Technology, 2016).

Structures are written as SMILES. Read-outs that look alike come from different tables or passages of the source.

Data set [1] has as its system liver microsomes from rats, dogs, guinea pigs, hamsters, monkeys and rabbits. The class given is in vitro ADME. The conditions noted are these: for formation of monohydroxylated metabolite, GC–MS: all microsomal preparations investigated; for status of metabolite in incubations with liver microsomes of different species: dogs, guinea pigs, hamsters, monkeys, rabbits, all incubations.

Data set [2] in a line: Racemization of OH-PCB metabolites. The class given is physicochemical. The conditions noted are these: CD column, GC-μECD; 300 °C for 2 h; methylated derivatives.
For data set [3], the system named is liver microsomes prepared from male Sprague–Dawley rats. Format: in vitro ADME, rat. The note with it: for metabolite detection by GC–MS: 50 μM parent PCB, 2 h, 37 °C; for relative level of dihydroxylated metabolite: all rat liver microsomal preparations except PB-pretreated rats, GC-μECD.
The test system of data set [4] is liver microsomes from Cynomolgus monkeys (male). The class given is in vitro ADME. The conditions noted are these: monkey liver microsomes, compared with other liver microsomes. (In general: Liver microsomes are vesicles of endoplasmic reticulum, rich in cytochrome P450 enzymes.)
Another data set has as its system recombinant rat CYP2B1. The note with it: cited from earlier work.
For a further data set, the system named is dog CYP2B11. The conditions noted are these: cited from earlier work.
The subject of data set [5] is liver microsomes from untreated beagle dogs (female). The class given is in vitro ADME. The conditions noted are these: female dog liver microsomes; 50 μM parent PCB, 2 h, 37 °C.
Data set [6] relates to liver microsomes from golden Syrian hamsters (male). Format: in vitro ADME. The conditions noted are these: male hamster liver microsomes; 50 μM parent PCB, 2 h, 37 °C.
Setting [7] is: microsomes from phenobarbital (PB) pretreated rats.
Setting [8] is: microsomes from isoniazid (INH) pretreated rats.

For the compound `Oc1ccc(Cl)c(-c2ccc(Cl)cc2Cl)c1Cl` [OH-PCB 51, 2,2′,4,6′-tetrachlorobiphenyl-3′-ol], the “rank order of EF values across species” value in data set [1] (EF = area E1/(area E1 + area E2), Chirasil-Dex column) is “monkey > rabbit ∼ guinea pig > hamster > rat > dog”. In addition, in data set [1], the “formation of monohydroxylated metabolite, GC–MS” value was “formed” and the “status of metabolite in incubations with liver microsomes of different species” value was “major metabolite”. Besides, the EF after racemization in data set [2] is on record as 0.46 ± 0.01. For the same compound, the “extent of enantiomeric enrichment, comparison of congeners” value in data set [3] (incubations with rat liver microsomes) is given as “more pronounced enantiomeric enrichment compared to OH-PCB 102”. Besides, the “metabolite detection by GC–MS” value in data set [3] (setting [7]) is recorded as “major metabolite”. In addition, in data set [4], the “extent of enantiomeric enrichment (EF)” value is “near racemic”.

Consider `Oc1cc(Cl)c(Cl)c(-c2c(Cl)ccc(Cl)c2Cl)c1Cl` [5-OH-PCB 136, 2,2′,3,3′,6,6′-hexachlorobiphenyl-5-ol], for which the metabolite formed with recombinant rat CYP2B1 and with dog CYP2B11 was 4,5-dihydroxylated PCB 136 metabolite throughout.

Regarding `Oc1ccc(Cl)c(-c2cc(Cl)c(Cl)cc2Cl)c1Cl` [OH-PCB 102, 2,2′,4,5,6′-pentachlorobiphenyl-3′-ol], in data set [1], the “formation of monohydroxylated metabolite, GC–MS” value is “detected” and the “status of metabolite in incubations with liver microsomes of different species” value is on record as “major metabolite”. Moreover, the EF after racemization in data set [2] amounted to 0.49 ± 0.01. Also, the “metabolite detection by GC–MS” value in data set [3] (setting [7]) is listed as “major metabolite”.

For the compound `Oc1cc(Cl)c(-c2ccc(Cl)cc2Cl)c(Cl)c1O` [diOH-PCB 51, 3′,4′-dihydroxy-2,2′,4,6′-tetrachlorobiphenyl], in data set [3], the “relative level of dihydroxylated metabolite” value is “minor metabolites”. Further, the results for the “metabolite detection by GC–MS” value in data set [3] (setting [8]) and in data set [3] (setting [7]) were “low levels” and “minor”, respectively.

Consider `Oc1cc(Cl)c(-c2cc(Cl)c(Cl)cc2Cl)c(Cl)c1O` [diOH-PCB 102, 3′,4′-dihydroxy-2,2′,4,5,6′-pentachlorobiphenyl], for which, in data set [3], the “relative level of dihydroxylated metabolite” value is “minor metabolites”. For the same compound, the “metabolite detection by GC–MS” value in data set [3] (microsomes from corn oil (CO) treated rats) is on record as “formed”; in data set [3] (setting [8]) it was “formed”; in data set [3] (setting [7]), “formation”; in data set [5], “formed”; in data set [6] it was “formed”.
